Results: patent publication US20090203636A1, “Prevention and Treatment of Cancer and Other Diseases” (priority 2006, published 2009)
Values after ≈ are worked out from the molar mass of the structure shown. Structures can show the parent of a compound that is named as a salt.

Experiments:
U-2 OS cells [1] = experiment: Telomere length (flow cytometry, PNA probe), cell cycle distribution (PI), apoptosis and TRAP status in U-2 OS cells; assay type: cell-based, human
Protocol: (§1) The ALT cell lines were treated with therapeutic concentrations of AZT, to determine if slippage telomeric DNA synthesis could be inhibited by AZT-TP, and thereby induce telomere shortening. Telomere length in AZT treated and untreated cell lines was measured by flow cytometry with a telomere specific peptide nucleic acid (PNA) probe. To determine cell cycle distribution, cells were stained with propidium iodide (PI).
Rate of DNA synthesis was determined by incorporation of 5-bromodeoxyuridine (BdU). […] It is important to note that changes in cell cycle distribution, DNA synthesis and telomere length were rapid and could be detected after only 10 days of AZT treatment.
Telomere length in untreated and GCV treated cells was measured by flow cytometry with a telomere-specific PNA probe as described above.
To determine cell cycle distribution, cells were stained with propidium iodide (PI).
(§2) Both telomerase positive (Hela) telomerase negative (U-2 OS) cell lines were used. Appropriate assays were performed to detect and confirm telomerase/L1RT specific activity in these cells.
(§3) The U-2 OS (osteosarcoma) and HeLa (uterine cervix) cell lines used in this study were obtained from American Type Culture Collection (Rockville, Md.). Cells were cultured in D-MEM media supplemented with 10% fetal calf serum at 37° C. in a humidified atmosphere of 5% CO2. For treatment of the cells with ACV, the media was supplemented with 3 μM of acyclovir (acyclovir, TEVA Pharm. Ind. Ltd, Israel). For treatment of the cells with GCV, the media was supplemented with 1.5 μM of GCV (Cymevene, Hoffman-La Roche). For treatment of the cells with PCV, the media was supplemented with 1.5 μM of PCV (penciclovir, Merck & Co.).
(§4) Real time TRAP assay was performed as described (Wege et al., SYBR Green real-time telomeric repeat amplification protocol for the rapid quantification of telomerase activity. Nucleic Acids Res. 2003; 31(2):E3-3). For telomere length measurement by flow cytometry, cells were stained with telomere specific FITC conjugated (C3TA2)3 PNA (Applied Biosystems) probe and contrastained with 0.06 μg/ml PI as described by Rufer, N., Dragowska, W., Thornbury G., Roosnek, E., Lansdorp P. M. Telomere length dynamics in human lymphocyte subpopulations […]. Nat. Biotechnol. 16, 743-747 (1998)).
(a) In vitro arrays: U-2 OS cells were incubated with 0.2 μM of AZT for 22 days. Actively growing clones were analyzed by flow-FISH with telomere specific PNA probe, and in real time TRAP assay using HeLa cells as positive control. Isolated actively growing clones were different from parental cells in DNA content and telomere length.
(§5) Telomere length in SN 1 or SN 2 treated and untreated cell lines was measured by flow cytometry with a telomere—specific peptide nucleic acid PNA) probe. To determine cell cycle distribution, cells were stained with propidium iodide (PI).
(§6) The U-2 OS (osteosarcoma) and Hela (uterine cervix) cell lines used in this study were obtained from American Type Culture Collection (Rockville, Md.). Cells were cultured in D-MEM media supplemented with 10% fetal calf serum at 37° C. in a humidified atmosphere of 5% CO2. For treatment of the cells with SN 1 or SN 2, the media was supplemented with 1.5 μM of SN1 or SN2.
(§7) For telomere length measurement by flow cytometry, cells were stained with telomere specific FITC conjugated (C3TA2)3 PNA (Applied Biosystems) probe and contra-stained with 0.06 μg/ml PI as described by Rufer, N., Dragowska, W., Thornbury G., Roosnek, E., Lansdorp P. M. Telomere length dynamics in human lymphocyte subpopulations […]. Nat. Biotechnol. 16, 743-747 (1998)).

HeLa cells [2] = experiment: Telomere length (flow cytometry, PNA probe), cell cycle distribution (PI) and apoptosis in HeLa cells; assay type: cell-based, human
Protocol: as §1
(§8) The origin of the cell lines are uterine cervix (HeLa) and epithelial ovarian (NuTu-19). Cells were cultured in D-MEM media supplemented with 10% fetal calf serum at 37° C. in a humidified atmosphere of 5% CO2. For treatment of the cells with GCV, the media was supplemented with 1.5 μM of GCV (Cymevene, Hoffman-La Roche). For treatment of the cells with ACV, the media was supplemented with 3 μM of Acyclovir (Acyclovir, TEVA Pharm. Ind. Id. Israel).
as §4, §2, §3, §5, §6, §7

NuTu-19 cells = experiment: Telomere length (flow cytometry, PNA probe), cell cycle distribution (PI) and apoptosis in NuTu-19 cells; assay type: cell-based; conditions: GCV 1.5 μM or ACV 3.0 μM, 14 days (Example 2b)
Protocol: as §8, §4

U-2 OS cells [3] = conditions: therapeutic concentrations, 14 days; reported in WO 2005/069880; cited from earlier work
[4] = system: Saos-2 osteosarcoma cells; conditions: therapeutic concentrations, 14 days; reported in WO 2005/069880; cited from earlier work
[5] = MTT-microtiter plate tetrazolium cytotoxicity assay; assay type: cell-based; conditions: dog, MDCK (ATCC) cells; continuous exposure for 2 days; read-out: IC50 cytotoxic doses
Protocol: (a) Cytotoxcity Assay: The cytotoxic effects of compounds of the invention was determined using pharmacological models that are well known to the art, i.e., MTT-microtiter plate tetrazolium cytotoxicity Assay. Specifically, cytotoxicity assays were performed using the MIT assay procedure described in Mosmann, 1983, Rapid calorimetric assay for cellular growth and survival: application to proliferation and cytotoxicity assays, J Immunol Methods, 65:55-63. Briefly, the assay was performed by using 96-well microtiter plates plated at 10^4 MDCK (ATCC) cells/well, in […] of growth medium.
For determination of IC50 cells were exposed continuously for 2 days to varying concentrations of SN1, SN2, SN3, SN4 and valine ester of SN1. MIT assays were performed at the end of the 2nd day. […] All assays were performed at least 2 times in 3 replicate wells.

HeLa cells [6] = assay type: in vivo; conditions: Valcyte in drinking water (1 mg/ml) from day 0
Protocol: For in vivo assay, appropriate host, e.g., nude (nu/nu) mice of about 5-7 weeks old are obtained and maintained in pathogen-free conditions. Approximately, 1×10^6 HeLa cells (and/or U-2 OS cells) contained in 200 μl of serum-free media are delivered to all animals, briefly anaesthetize with Metofane, by subcutaneous (s.c.) injection in flank. Then the mice are divided into experimental group and control group. Appropriate concentrations of compounds of the formulas (I) to (VI), ACV, PCV and/or GCV are used for tumor growth progression or regression assays.
In one embodiment, impairment of s.c. tumor growth or time to progression rather than decrease in size of an established tumor (regression) is assessed. In this embodiment, starting from the day zero, mice in the experimental group receive GCV in drinking water ad libitum. Concentration of GCV in water can be 2 mg/ml. Fresh solution of GCV is supplied every 3 days. Mice in the control group receive only drinking water. Tumors are measured every 2-3 days. Mice are sacrificed when tumors exceed 1 cm^3. Tumor volume is calculated with formula 4/3πr^3, where r is the radius of the tumor.
Experimental group received valganciclovir in drinking water from day 0. Human cancer HeLa cell culture was purchased from ATCC. In all, 12 CD1/-nu and 12 NMRiI/-nu nude mice were purchased from Charles River Laboratories, Charles River Deutschland GmbH. These nude mice were injected s.c. with 3×10^5 Hela cells. Mice in the experimental groups (6 mice per strain) were exposed to Valcyte® (val-ganciclovir) in drinking water (1 mg/ml) from day 0.
(a) In vivo assays using Valganciclovir and zidovudine (AZT) combination: Human cancer HeLa cell culture was purchased from ATCC. A total of 24 CD1/-nu nude mice were purchased from Charles River laboratories, Charles River Deutschland GmbH. These mice were injected s.c. with 1×10^5 HeLa cells. The tumor volumes were determined by measurement of maximal and minimal diameters of the tumor. The calculations were conducted using the formula V=4/3 πRmax×Rmin^2, where Rmax−½ of maximal diameter of the tumor, and Rmin−½ of minimal diameter of the tumor. nude mice were injected s.c. with 1×10^5 Hela cells.
Of the 12 treated mice, after 20 days of double cocktail treatment, six mice were administered with a triple cocktail (Valcyte®+Retrovir®+ddI at the dose of 1 mg/ml each in drinking water for a further period 21 days (see Example 7 below) and only six mice continued to receive the double cocktail for another 21 days at which time tumor measurements were taken for all mice injected with HeLa cells. Of the remaining 12 mice injected with HeLa cells but untreated with any cocktail or anticancer agent thus far, six were maintained as controls for the rest of the duration of the experiment. The other six were treated with Xeloda® 67 days after the injection of HeLa cells (see Example 7 below).
As mentioned in Example 5 above, a total of six mice, after 20 days of double cocktail treatment, were administered with a triple cocktail (Valcyte®+Retrovir®+ddI at the dose of 1 mg/ml each in drinking water) for a further period 21 days. After 14 days of triple cocktail treatment, Xeloda® at a concentration 1 mg/ml was added to the triple cocktail. Six mice previously untreated with any drug for 67 days after the injection of HeLa cells were treated with Xeloda® at a concentration 1 mg/ml in drinking water. Tumor measurements were taken in all mice 75 days following the injection of HeLa cells.

[7] = ACV 3.0, GCV 1.5 μM or PCV 1.5 μM, 10 and 14 days (Example 2c)
[8] = GCV 1.5 μM or ACV 3.0 μM, 14 days (Example 2b)

## Nc1nc2c(ncn2COCCO)c(=O)[nH]1 [ACV, 9-[2(hydromethoxy)-methyl]guanine]
U-2 OS cells [1]; [7]
  telomere length, apoptosis and cell cycle distribution: telomere shortening, massive apoptosis and G2 arrest
HeLa cells [2]; [7]
  telomere length, apoptosis and cell cycle distribution: telomere shortening, massive apoptosis and G2 arrest
HeLa cells [2]; [8]
  telomere length, apoptosis and cell cycle distribution: telomere shortening, massive apoptosis and G2 arrest
NuTu-19 cells
  telomere length, apoptosis and cell cycle distribution: telomere shortening, massive apoptosis and G2 arrest

## Nc1nc(O)c2ncn(COC(CO)CO)c2n1 [GCV]
U-2 OS cells [1]; [7]
  telomere length, apoptosis and cell cycle distribution: telomere shortening, massive apoptosis and G2 arrest
U-2 OS cells [1]; GCV 0.3 μg/ml, 14 days
  telomere length, apoptosis and cell cycle distribution: telomere shortening, massive apoptosis programmed cell death) and G2 arrest
HeLa cells [2]; [7]
  telomere length, apoptosis and cell cycle distribution: telomere shortening, massive apoptosis and G2 arrest
HeLa cells [2]; [8]
  telomere length, apoptosis and cell cycle distribution: telomere shortening, massive apoptosis and G2 arrest
NuTu-19 cells
  telomere length, apoptosis and cell cycle distribution: telomere shortening, massive apoptosis and G2 arrest
U-2 OS cells [3]
  telomere length, cell cycle and apoptosis: telomere shortening, G2 arrest and massive apoptosis
[4]
  telomere length, cell cycle and apoptosis: telomere shortening, G2 arrest and massive apoptosis

## Nc1nc2c(ncn2CCC(CO)CO)c(=O)[nH]1 [PCV]
U-2 OS cells [1]; [7]
  telomere length, apoptosis and cell cycle distribution: telomere shortening, massive apoptosis and G2 arrest
HeLa cells [2]; [7]
  telomere length, apoptosis and cell cycle distribution: telomere shortening, massive apoptosis and G2 arrest

## Cc1cn(COCCO)c(=O)[nH]c1=O [SN1, 1-[(2-Hydroxyethoxy)methyl]-5-methyluracil]
HeLa cells [2]; SN 1 or SN 2 1.5 μM, 14 days
  telomere length, apoptosis and cell cycle distribution: telomere shortening, massive apoptosis and G2 arrest
[5]
  IC50 at 2 days: 750 µg/mL (≈ 3.75 mM)

## Nc1ncnc2c1ncn2COCCO [SN2, 9-[(2-Hydroxyethoxy)methyl]-adenine]
HeLa cells [2]; SN 1 or SN 2 1.5 μM, 14 days
  telomere length, apoptosis and cell cycle distribution: telomere shortening, massive apoptosis and G2 arrest
[5]
  IC50 at 2 days: 750 µg/mL (≈ 3.58 mM)

## Cc1cn(COC(CO)CO)c(=O)[nH]c1=O [SN3, 1-[(1,3-Dihydroxy-2-propoxy)methyl]-5-methyluracil]
[5]
  IC50 at 2 days: > 1000 µg/mL
other
  melting point: 156 to 157 °C

## Nc1ncnc2c1ncn2COC(CO)CO [SN4, 9-[(1,3-Dihydroxy-2-propoxy)methyl]-adenine]
[5]
  IC50 at 2 days: > 1000 µg/mL

## Cc1cn(COCCOC(=O)[C@@H](N)C(C)C)c(=O)[nH]c1=O [VSN1, 2-[(5-Methyluracil-1-yl)methoxy]-ethyl L-valinate hydrochloride monohydrate]
[5]
  IC50 at 2 days: > 1000 µg/mL

## CC(C)[C@H](N)C(=O)OCC(CO)OCn1cnc2c(=O)nc(N)[nH]c21 (stereo partly drawn) [Valcyte®]
HeLa cells [6]
  tumor growth in the other treated mice: slowing of tumor growth
HeLa cells [6]; about 14 days
  tumor development: All mice in control and treated groups had developed tumors
HeLa cells [6]; by about day 30
  mice in which the tumor regressed and was eliminated by monotherapy: one
